What follows are molecules tested on IL-12 induced STAT4 phosphorlyation mediated by TYK2/JAK2 (assay: IL-12 Induced pSTAT4 in Human PBMC). Settings: 1.7 ng/mL IL-12 for 30 minutes.
Assay type: cell-based
Experimental: Human PBMC were isolated from buffy coat and are stored frozen for assays as needed. […] 15 μL of compound or DMSO was added to the well at the desired concentrations and incubated at 1 hr at 37° C. 15 μL of stimulus (final concentration of 1.7 ng/mL IL-12) was added for 30 minutes prior to pSTAT4 and total STAT4 analysis using cell lysates prepared and analyzed by MSD reagents as per manufacturer protocol. The final DMSO concentration of compound in the assay was 0.1%.
The IL-12 induced pSTAT4 assay evaluates the inhibition of IL-12 induced STAT4 phosphorlyation mediated by TYK2/JAK2 (heterpdimeric complex).

Structure (SMILES) | IC50
CNc1cc(Nc2cccn([C@@H]3CC[C@H]3OC)c2=O)nc2c(C(=O)N[C@H]3CC[C@H]3O)cnn12 [Compound I-243] | < 0.1 µM
CNc1cc(Nc2cccn([C@H]3CCC[C@H](OC)C3)c2=O)nc2c(C(=O)NC3CC[C@@H]3F)cnn12 (some centres unmarked) [Compound I-230] | < 0.1 µM
CNc1ccc(-c2cc(NC)n3ncc(C(=O)N[C@H]4CC[C@@H]4F)c3n2)n2ccnc12 [Compound I-481] | < 0.1 µM
CNc1cc(Nc2cccn([C@H]3C[C@H](F)C3)c2=O)nc2c(C(=O)N[C@H]3CC[C@H]3O)cnn12 [Compound I-16, 5-((1-((1r,3S)-3-Fluorocyclobutyl)-2-oxo-1,2-dihydropyridin-3-yl)amino)-N-((1S,2R)-2-hydroxycyclobutyl)-7-(methylamino)pyrazolo[1,5-a]pyrimidine-3-carboxamide] | < 0.1 µM
CNc1cc(-c2cn(C(C)C)c3nnccc23)nc2c(C(=O)N[C@H]3CC[C@H]3O)cnn12 [Compound I-1000] | 0.5 to 1 µM
CNc1cc(-c2cnc3n([C@@H]4COC[C@H]4O)cccc2-3)nc2c(C(=O)NC3CC[C@@H]3F)cnn12 (some centres unmarked) [Compound I-827] | < 0.1 µM
CNc1cc(-c2cn(C3COC3)c3ncccc23)nc2c(C(=O)N[C@@H]3CCC3(F)F)cnn12 [Compound I-675] | < 0.1 µM
CNc1cc(Nc2cccn([C@H]3CCC[C@@H](C#N)C3)c2=O)nc2c(C(=O)N[C@H]3CCC3(F)F)cnn12 [Compound I-331] | < 0.1 µM
CNc1cc(Nc2cccn([C@H]3CC[C@@H]3OC)c2=O)nc2c(C(=O)N[C@H]3CC[C@H]3O)cnn12 [Compound I-240] | < 0.1 µM
CNc1cc(Nc2cccn(C3CCOCC3)c2=O)nc2c(C(=O)N[C@@H]3CC[C@]3(O)C(F)(F)F)cnn12 [Compound I-976] | 0.1 to 0.5 µM
CNc1cc(Nc2cccn([C@H]3CC[C@H](OC)CC3)c2=O)nc2c(C(=O)NC3CC[C@@H]3F)cnn12 (some centres unmarked) [Compound I-224] | < 0.1 µM
CNc1cc(Nc2cccn([C@@H]3CCCOC3)c2=O)nc2c(C(=O)N[C@@H]3CCC3(F)F)cnn12 [Compound I-317] | < 0.1 µM
CNc1cc(-c2cnc3n([C@H]4CCOC[C@H]4F)cccc2-3)nc2c(C(=O)NC3CC[C@H]3O)cnn12 (some centres unmarked) [Compound I-942] | 0.5 to 1 µM
CNc1cc(Nc2cccn([C@H]3CC[C@@H]3O)c2=O)nc2c(C(=O)N[C@@H]3CC[C@@]3(C)OC)cnn12 [Compound I-377] | < 0.1 µM
CNc1cc(Nc2cccn(-c3ncccc3F)c2=O)nc2c(C(=O)NC3CC[C@@]3(C)OC)cnn12 (some centres unmarked) [Compound I-414] | < 0.1 µM
CNc1cc(Nc2cccn(-c3ccc(C)nc3)c2=O)nc2c(C(=O)N[C@H]3CCC3(F)F)cnn12 [Compound I-325] | < 0.1 µM
CNc1cc(-c2cn([C@H]3C[C@@H](O)C3)c3ncccc23)nc2c(C(=O)N[C@H]3CC[C@@H]3OC)cnn12 [Compound I-606] | < 0.1 µM
CNc1cc(-c2cn([C@@H]3CCOC[C@H]3F)c3ncccc23)nc2c(C(=O)N[C@H]3CC[C@@H]3OC)cnn12 [Compound I-804] | < 0.1 µM
CNc1cc(Nc2cccn([C@H]3C[C@@H](OC)C3)c2=O)nc2c(C(=O)N[C@H]3CCC3(F)F)cnn12 [Compound I-296] | < 0.1 µM
CNc1cc(-c2cn([C@@H]3CCOC[C@@H]3F)c3ncccc23)nc2c(C(=O)NC3CC[C@H]3O)cnn12 (some centres unmarked) [Compound I-588] | 0.1 to 0.5 µM
CNc1cc(-c2cn([C@H]3COC[C@@H]3OC)c3ccccc23)nc2c(C(=O)N[C@H]3CC[C@@H]3OC)cnn12 [Compound I-742] | < 0.1 µM
CO[C@H]1CCC1NC(=O)c1cnn2c(N)cc(-c3cnc4n([C@H]5COC[C@@H]5OC)cccc3-4)nc12 (some centres unmarked) [Compound I-999] | 0.1 to 0.5 µM
CNc1cc(-c2cnc3n([C@@H]4CCOC[C@H]4OC)cccc2-3)nc2c(C(=O)N[C@@H]3CC[C@H]3OC)cnn12 [Compound I-896] | < 0.1 µM
CNc1cc(Nc2cccn(-c3ncccc3F)c2=O)nc2c(C(=O)NC3CC[C@H]3OC)cnn12 (some centres unmarked) [Compound I-265] | < 0.1 µM
CNc1cc(Nc2cccn(C3CCC[C@@](C)(OC)C3)c2=O)nc2c(C(=O)N[C@@H]3C[C@@H]3F)cnn12 (some centres unmarked) [Compound I-130] | < 0.1 µM

Structure (SMILES) | IC50
CNc1cc(Nc2cccn(C3CCOCC3)c2=O)nc2c(C(=O)NC3CC[C@@H]3F)cnn12 (some centres unmarked) [Compound I-188] | < 0.1 µM
CNc1cc(-c2cn(C3COC3)c3ncccc23)nc2c(C(=O)N[C@H]3CC[C@@H]3O)cnn12 [Compound I-558] | < 0.1 µM
CNc1cc(-c2cn([C@@H]3CC3(F)F)c3ncccc23)nc2c(C(=O)N[C@H]3CC[C@H]3O)cnn12 [Compound I-549] | < 0.1 µM
CNc1cc(-c2cn([C@H]3COC[C@@H]3O)c3ncccc23)nc2c(C(=O)NC3CCC3(F)F)cnn12 (some centres unmarked) [Compound I-695] | < 0.1 µM
CNc1cc(-c2cn([C@H]3COC[C@@H]3OC)c3ncccc23)nc2c(C(=O)N[C@H]3CC[C@@H]3OC)cnn12 [Compound I-634] | < 0.1 µM
CNc1cc(Nc2cccn([C@H]3C[C@H](F)C3)c2=O)nc2c(C(=O)N[C@@H]3CC[C@H]3O)cnn12 [Compound I-108, 5-((1-((1r,3R)-3-Fluorocyclobutyl)-2-oxo-1,2-dihydropyridin-3-yl)amino)-N-((1R,2R)-2-hydroxycyclobutyl)-7-(methylamino)pyrazolo[1,5-a]pyrimidine-3-carboxamide] | 0.1 to 0.5 µM
CNc1cc(-c2cn([C@H]3CCOC3)c3ncccc23)nc2c(C(=O)NC3CC[C@@H]3OC)cnn12 (some centres unmarked) [Compound I-612] | < 0.1 µM
CNc1cc(-c2cn([C@H]3CCOC[C@@H]3OC)c3ncccc23)nc2c(C(=O)N[C@H]3CC[C@@H]3OC)cnn12 [Compound I-663] | < 0.1 µM
CNc1cc(Nc2cccn([C@@H]3C[C@H]3F)c2=O)nc2c(C(=O)NC3CCC3(F)F)cnn12 (some centres unmarked) [Compound I-274] | < 0.1 µM
CNc1cc(Nc2cccn(C3CC(F)(F)C3)c2=O)nc2c(C(=O)N[C@@H]3C[C@H]3OC)cnn12 [Compound I-139] | < 0.1 µM
CNc1cc(-c2cn([C@@H]3COC[C@H]3OC)c3ncccc23)nc2c(C(=O)NC3CC[C@@H]3OC)cnn12 (some centres unmarked) [Compound I-636] | < 0.1 µM
CNc1cc(-c2cn([C@@H]3COC[C@H]3O)c3ncccc23)nc2c(C(=O)N[C@H]3CCC3(F)F)cnn12 [Compound I-693] | < 0.1 µM
CNc1cc(Nc2cccn([C@H]3CCCOC3)c2=O)nc2c(C(=O)NC3CC[C@@H]3F)cnn12 (some centres unmarked) [Compound I-197] | < 0.1 µM
CNc1cc(-c2cn(CC(=O)N3CCOCC3)c3ncccc23)nc2c(C(=O)N[C@H]3CC[C@@H]3OC)cnn12 [Compound I-963] | 0.1 to 0.5 µM
CNc1cc(Nc2cccn([C@H]3C[C@@H]3F)c2=O)nc2c(C(=O)N[C@@H]3CCC3(F)F)cnn12 [Compound I-279] | < 0.1 µM
CNc1cc(Nc2cccn([C@H]3CCCC[C@H]3O)c2=O)nc2c(C(=O)N[C@@H]3CC[C@H]3F)cnn12 [Compound I-214] | < 0.1 µM
CNc1cc(Nc2cccn(C3COC3)c2=O)nc2c(C(=O)N[C@@H]3CCC3(F)F)cnn12 [Compound I-282] | < 0.1 µM
CNc1cc(-c2cn(CC(=O)N3CCC3)c3ncccc23)nc2c(C(=O)N[C@H]3CC[C@@H]3OC)cnn12 [Compound I-929] | 0.1 to 0.5 µM
CNc1cc(Nc2cccn([C@@H]3CCC[C@@H]3O)c2=O)nc2c(C(=O)N[C@@H]3CC[C@H]3F)cnn12 [Compound I-181] | < 0.1 µM
CNc1cc(Nc2cccn([C@H]3[C@@H]4COC[C@@H]43)c2=O)nc2c(C(=O)N[C@@H]3CC[C@@H]3F)cnn12 [Compound I-205] | < 0.1 µM
CNc1cc(-c2cn([C@H]3COC[C@@H]3OC)c3ncccc23)nc2c(C(=O)N[C@H]3CC[C@@H]3F)cnn12 [Compound I-523] | < 0.1 µM
CNc1cc(-c2cn([C@@H]3CCN(C)C3)c3ncccc23)nc2c(C(=O)NC3CC[C@@H]3OC)cnn12 (some centres unmarked) [Compound I-615] | < 0.1 µM
CNc1cc(Nc2cccn([C@H]3C[C@H](OC)C3)c2=O)nc2c(C(=O)N[C@H]3CC[C@@H]3OC)cnn12 [Compound I-255] | < 0.1 µM
CNc1cc(Nc2cccn([C@H]3CCC[C@H]3O)c2=O)nc2c(C(=O)N[C@H]3CC[C@]3(C)OC)cnn12 [Compound I-391] | < 0.1 µM

Same assay, conditions: 0.5 h, 1.7 ng/mL IL-12 for 30 minutes

Structure (SMILES) | IC50
CNc1cc(-c2cn([C@H]3CN(C)C[C@@H]3F)c3ncccc23)nc2c(C(=O)NC3CC[C@@H]3OC)cnn12 (stereo partly drawn) [Compound I-639, 5-(1-((3S,4S)-4-Fluoro-1-methylpyrrolidin-3-yl)-1H-pyrrolo[2,3-b]pyridin-3-yl)-N-((trans-1,2)-2-methoxycyclobutyl)-7-(methylamino)pyrazolo[1,5-a]pyrimidine-3-carboxamide] | < 0.1 µM
CNc1cc(-c2cn([C@H]3[C@@H]4COC[C@@H]43)c3ncccc23)nc2c(C(=O)NC3CC[C@@H]3OC)cnn12 (stereo partly drawn) [Compound I-792, 5-(1-((1R,5S,6r)-3-oxabicyclo[3.1.0]hexan-6-yl)-1H-pyrrolo[2,3-b]pyridin-3-yl)-N-((trans-1,2)-2-methoxycyclobutyl)-7-(methylamino)pyrazolo[1,5-a]pyrimidine-3-carboxamide] | < 0.1 µM
CNc1cc(-c2cn([C@H]3C[C@@H](OC)C3)c3ncccc23)nc2c(C(=O)NC3CC[C@@H]3OC)cnn12 (stereo partly drawn) [Compound I-925, N-(2-methoxycyclobutyl)-5-(1-((1s,3S)-3-methoxycyclobutyl)-1H-pyrrolo[2,3-b]pyridin-3-yl)-7-(methylamino)pyrazolo[1,5-a]pyrimidine-3-carboxamide] | < 0.1 µM
CNc1cc(-c2cn([C@H]3CCC[C@H]3F)c3ncccc23)nc2c(C(=O)NC3COC[C@H]3O)cnn12 (stereo partly drawn) [Compound I-721, 5-(1-((1S,2R)-2-Fluorocyclopentyl)-1H-pyrrolo[2,3-b]pyridin-3-yl)-N-((cis-3,4)-4-hydroxytetrahydrofuran-3-yl)-7-(methylamino)pyrazolo[1,5-a]pyrimidine-3-carboxamide] | < 0.1 µM

Source: patent US11414431B2, “Substituted pyrazolo[1,5-a]pyrimidines as TYK2 inhibitors” (Nimbus Lakshmi, Inc., priority 2018, dated 2022)
